From patent US20250057827A1, “CYTOTOXICITY TARGETING CHIMERAS FOR PROSTATE SPECIFIC MEMBRANE ANTIGEN-EXPRESSING CELLS” (GLAXOSMITHKLINE INTELLECTUAL PROPERTY DEVELOPMENT LIMITED, priority 2022, published 2025) come the findings set out here.

The assay concerns the target T1, PSMA (target cells: LNCaP cells) (Homo sapiens, UniProt Q04609).
T1 construct: Target cells: LNCaP cells (typically 1000-20,000 cells per well); endogenous in cells; host or cells: LNCaP cells (target cells); Jurkat FcγRIIIa/NFAT-luciferase reporter cells also in the well
The experiment in a line: Antibody dependent cellular cytotoxicity (ADCC) reporter assay. Also on record: key to ADCC Reporter Assay pEC50: Inactive: inactive = pEC50 < 5. It counts as cell-based. As to conditions: anti-cotinine antibody (SEQ ID NO: 11/12), Jurkat FcγRIIIa NFAT-luciferase reporter cells, 12-18 hours, EC50 in molar, average if more than one run; for EC50: read-out: ADCC Reporter Assay pEC50 (converted). The protocol:
An antibody dependent cellular cytotoxicity (ADCC) reporter assay was conducted using the following four assay components: (i) ARM compound of Formula (I) targeting PSMA (concentrations ranging from 1 pM to 10 μM); (ii) anti-cotinine antibody having a heavy chain sequence of SEQ ID NO: 11 and a light chain sequence of SEQ ID NO: 12 (rabbit variable region with human IgG1 Fc domain containing DE mutation (S239D/I332E)) (concentrations ranging from 0.01 μg/mL-200 μg/mL); (iii) Target cells: LNCaP cells (typically 1000-20,000 cells per well); and (iv) Reporter cells—Jurkat cells engineered to express FcγRIIIa with a reporter gene luciferase under the control of the NFAT promoter (typically 3000-75,000 cells per well). Reagents were combined in final volume of 20 μL in 384—well tissue culture treated plate. All four assay components were incubated together for about 12-18 hours. Thereafter, BioGlo Detection reagent (Promega) was added to the wells to lyse the cells and provide a substrate for the luciferase reporter protein.
Luminescence signal was measured on a microplate reader capable of measuring luminescence and signal: background was calculated by dividing the signal of a test well by the signal obtained when no compound of formula (I) was included in the assay. EC50 calculations were done using Graphpad Prism Software, specifically a nonlinear regression curve fit (Y=Bottom+(Top−Bottom)/(1+10^((Log EC50−X)*HillSlope))).
ARMs compounds of Formula (I) were tested for ADCC activity in the above assay in one or more experimental runs and the results are shown in Table 3 below. Potency of the compounds of Formula (I) is reported as a pEC50 values. The pEC50 value is the negative log of the EC50 value, wherein the EC50 value is half maximal effective concentration measured in molar (M). For compounds tested in more than one experimental run, the pEC50 value is reported as an average.
A general note: Reporter assays use an easily measured gene product as a stand-in for the process of interest.

T1 sequence (Q04609 whole entry): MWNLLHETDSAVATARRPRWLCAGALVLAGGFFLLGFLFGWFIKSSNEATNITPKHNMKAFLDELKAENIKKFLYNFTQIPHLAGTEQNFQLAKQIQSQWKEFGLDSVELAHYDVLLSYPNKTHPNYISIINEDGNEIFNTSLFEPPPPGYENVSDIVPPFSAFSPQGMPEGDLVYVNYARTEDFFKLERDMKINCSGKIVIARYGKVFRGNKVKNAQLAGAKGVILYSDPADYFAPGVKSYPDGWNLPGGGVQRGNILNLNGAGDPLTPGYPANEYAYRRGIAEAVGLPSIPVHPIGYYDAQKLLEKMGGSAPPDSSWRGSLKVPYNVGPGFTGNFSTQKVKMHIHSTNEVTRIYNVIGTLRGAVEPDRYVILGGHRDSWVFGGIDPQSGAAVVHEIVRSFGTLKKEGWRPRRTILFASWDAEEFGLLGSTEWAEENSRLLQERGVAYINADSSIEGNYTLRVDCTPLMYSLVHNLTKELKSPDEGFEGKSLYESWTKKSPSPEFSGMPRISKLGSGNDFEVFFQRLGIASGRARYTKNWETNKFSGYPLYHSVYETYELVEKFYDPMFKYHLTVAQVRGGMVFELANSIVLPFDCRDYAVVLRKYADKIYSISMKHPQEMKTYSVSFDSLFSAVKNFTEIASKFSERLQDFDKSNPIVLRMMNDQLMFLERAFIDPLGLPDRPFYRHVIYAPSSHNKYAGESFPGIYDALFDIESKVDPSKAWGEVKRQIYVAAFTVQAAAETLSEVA

Regarding `CN1C(=O)C[C@H](C(=O)NCCO[C@H]2CC[C@H](OCCCC(=O)N[C@H]3CC[C@H](C(=O)NCCNC(=O)CC[C@H](NC(=O)N[C@@H](CCC(=O)O)C(=O)O)C(=O)O)CC3)CC2)[C@H]1c1cccnc1` [Example 3, (9S,13S)-1-((1R,4R)-4-(4-(((1S,4R)-4-(2-((2S,3S)-1-Methyl-5-oxo-2-(pyridin-3-yl)pyrrolidine-3-carboxamido)ethoxy)cyclohexyl)oxy)butanamido)cyclohexyl)-1,6,11-trioxo-2,5,10,12-tetraazapentadecane-9,13,15-tricarboxylic acid], the EC50 is 0.126 µM.

As for `CN1C(=O)C[C@H](C(=O)NCCO[C@H]2CC[C@H](OCCCC(=O)N[C@H]3CC[C@H](C(=O)N[C@H]4CC[C@H](NC(=O)CC[C@H](NC(=O)N[C@@H](CCC(=O)O)C(=O)O)C(=O)O)CC4)CC3)CC2)[C@H]1c1cccnc1` [Example 4, (((S)-1-Carboxy-4-(((1R,4R)-4-((1R,4R)-4-(4-(((1S,4R)-4-(2-((2S,3S)-1-methyl-5-oxo-2-(pyridin-3-yl)pyrrolidine-3-carboxamido)ethoxy)cyclohexyl)oxy)butanamido)cyclohexane-1-carboxamido)cyclohexyl)amino)-4-oxobutyl)carbamoyl)-L-glutamic acid], the EC50 is 0.0501 µM.

Consider `CN1C(=O)C[C@H](C(=O)NCCO[C@H]2CC[C@H](OCCCC(=O)N[C@H]3CC[C@H](C(=O)NCCNC(=O)[C@H](Cc4ccccc4)NC(=O)[C@H](Cc4ccccc4)NC(=O)CCCCCCCNC(=O)CC[C@H](NC(=O)N[C@@H](CCC(=O)O)C(=O)O)C(=O)O)CC3)CC2)[C@H]1c1cccnc1` [Example 6, (7S,10S,24S,28S)-7,10-dibenzyl-1-((1R,4S)-4-(4-(((1S,4R)-4-(2-((2S,3S)-1-methyl-5-oxo-2-(pyridin-3-yl)pyrrolidine-3-carboxamido)ethoxy)cyclohexyl)oxy)butanamido)cyclohexyl)-1,6,9,12,21,26-hexaoxo-2,5,8,11,20,25,27-heptaazatriacontane-24,28,30-tricarboxylic acid], for which the EC50 was 0.0398 µM.

Regarding `CN1C(=O)C[C@H](C(=O)NCCNC(=O)[C@H](Cc2ccccc2)NC(=O)[C@H](Cc2ccccc2)NC(=O)CCCCCCCNC(=O)CC[C@H](NC(=O)N[C@@H](CCC(=O)O)C(=O)O)C(=O)O)[C@H]1c1cccnc1` [Example 5, (7S,10S,24S,28S)-7,10-Dibenzyl-1-((2S,3S)-1-methyl-5-oxo-2-(pyridin-3-yl)pyrrolidin-3-yl)-1,6,9,12,21,26-hexaoxo-2,5,8,11,20,25,27-heptaazatriacontane-24,28,30-tricarboxylic acid], the EC50 was 0.0398 µM.

On to `CN1C(=O)C[C@H](C(=O)NCCO[C@H]2CC[C@H](OCCCC(=O)N[C@H]3CC[C@H](C(=O)N[C@@H](Cc4ccc5ccccc5c4)C(=O)NCCCC[C@H](NC(=O)N[C@@H](CCC(=O)O)C(=O)O)C(=O)O)CC3)CC2)[C@H]1c1cccnc1` (racemic) [Example 8, (((S)-1-Carboxy-5-((S)-2-((1R,4S)-4-(4-(((1S,4R)-4-(2-((2S,3S)-1-methyl-5-oxo-2-(pyridin-3-yl)pyrrolidine-3-carboxamido)ethoxy)cyclohexyl)oxy)butanamido)cyclohexane-1-carboxamido)-3-(naphthalen-2-yl)propanamido)pentyl)carbamoyl)-L-glutamic acid], for which the EC50 was 0.00224 µM.

`CN1C(=O)C[C@H](C(=O)N[C@@H](Cc2ccc3ccccc3c2)C(=O)NCCCC[C@H](NC(=O)N[C@@H](CCC(=O)O)C(=O)O)C(=O)O)[C@H]1c1cccnc1` [Example 10, (((S)-1-Carboxy-5-((S)-2-((2S,3S)-1-methyl-5-oxo-2-(pyridin-3-yl)pyrrolidine-3-carboxamido)-3-(naphthalen-2-yl)propanamido)pentyl)carbamoyl)-L-glutamic acid]: the “ADCC Reporter Assay pEC50” value was “Inactive^1”.

Turning to `CN1C(=O)C[C@H](C(=O)NCCOCCOCCOCCOCCOCCOCCOCCOCCOCCOCCOCCOCCC(=O)NCCNC(=O)[C@H](Cc2ccccc2)NC(=O)[C@H](Cc2ccccc2)NC(=O)CCCCCCCNC(=O)CC[C@H](NC(=O)N[C@@H](CCC(=O)O)C(=O)O)C(=O)O)[C@H]1c1cccnc1` [Example 7, (47S,50S,64S,68S)-47,50-Dibenzyl-1-((2S,3S)-1-methyl-5-oxo-2-(pyridin-3-yl)pyrrolidin-3-yl)-1,41,46,49,52,61,66-heptaoxo-5,8,11,14,17,20,23,26,29,32,35,38-dodecaoxa-2,42,45,48,51,60,65,67-octaazaheptacontane-64,68,70-tricarboxylic acid], the EC50 is 0.126 µM.

With `CN1C(=O)C[C@H](C(=O)NCCOCCOCCOCCOCCOCCOCCOCCOCCOCCOCCOCCOCCC(=O)N[C@@H](Cc2ccc3ccccc3c2)C(=O)NCCCC[C@H](NC(=O)N[C@@H](CCC(=O)O)C(=O)O)C(=O)O)[C@H]1c1cccnc1` [Example 9, (((S)-1-Carboxy-5-((S)-2-(1-((2S,3S)-1-methyl-5-oxo-2-(pyridin-3-yl)pyrrolidin-3-yl)-1-oxo-5,8,11,14,17,20,23,26,29,32,35,38-dodecaoxa-2-azahentetracontan-41-amido)-3-(naphthalen-2-yl)propanamido)pentyl)carbamoyl)-L-glutamic acid], the EC50 was 0.00891 µM.

On to `CN1C(=O)C[C@H](C(=O)NCCO[C@H]2CC[C@H](OCCCC(=O)N[C@H]3CC[C@H](C(=O)N4CCN(C(=O)CC[C@H](NC(=O)N[C@@H](CCC(=O)O)C(=O)O)C(=O)O)CC4)CC3)CC2)[C@H]1c1cccnc1` [Example 1, (((S)-1-Carboxy-4-(4-((1R,4R)-4-(4-(((1S,4R)-4-(2-((2S,3S)-1-methyl-5-oxo-2-(pyridin-3-yl)pyrrolidine-3-carboxamido)ethoxy)cyclohexyl)oxy)butanamido)cyclohexane-1-carbonyl)piperazin-1-yl)-4-oxobutyl)carbamoyl)-L-glutamic acid], for which the EC50 was 0.0501 µM.

`CN1C(=O)C[C@H](C(=O)NCCO[C@H]2CC[C@H](OCCCC(=O)N[C@H]3CC[C@H](C(=O)N[C@H]4CC[C@@H](NC(=O)CC[C@H](NC(=O)N[C@@H](CCC(=O)O)C(=O)O)C(=O)O)CC4)CC3)CC2)[C@H]1c1cccnc1` [Example 2, (((S)-1-Carboxy-4-(((1S,4S)-4-((1R,4S)-4-(4-(((1S,4R)-4-(2-((2S,3S)-1-methyl-5-oxo-2-(pyridin-3-yl)pyrrolidine-3-carboxamido)ethoxy)cyclohexyl)oxy)butanamido)cyclohexane-1-carboxamido)cyclohexyl)amino)-4-oxobutyl)carbamoyl)-L-glutamic acid]: the EC50 was 0.0501 µM.
